Structures can show the parent of a compound that is named as a salt.
Assays:
mortality induced by PAF = assay: Mortality induced by PAF in mice (p.o.) (Test 3); type: in vivo, Swiss mice; details: for ED50: Mus musculus, 2 h, po, 1 h before 100 mcg/kg PAF-C18 and 1 mg/kg propanolol, 50% inhibition of mortality, read-out: PAF antagonism in vivo, Test 3 Mort. ID50
Experimental: This test was performed according to the procedure described by Young et al. (Prostaglandins, 1985, 30, 545-551). Groups of 10 Swiss mice weighing from 22 to 26 g were used. 100 mcg/kg of PAF-C18 and 1 mg/kg of propanolol were administered through a lateral tail vein 1 h after the oral administration of the compounds to be tested (0.2 mL/10 g). Animals were examined 2 h after the injection of PAF. The percentage of the inhibition of the mortality induced by PAF was determined for all test compounds in comparison with the control group. The results are expressed as ID50 values, that is to say, the amount of compound by weight of animal (dose) needed to inhibit the mortality induced by PAF in a 50%.

[1] = tested on: histamine-induced contraction of guinea-pig ileum (AntiH1); assay: Antihistamine activity in guinea-pig ileum (Test 4, AntiH1 act.); type: cell-based, Dunkin-Hartley guinea pigs; details: for IC50: Cavia porcellus, histamine 5×10^-7 M, 5 min preincubation, read-out: Antihistaminic activity in vitro, Test 4 AntiH1 act. ileum IC50; for IC50 / antihistamine activity compared with compounds 11 and 12-14, in words / antihistamine potency in words: guinea-pig ileum
Experimental: This test was performed according to the method of Magnus. Male Dunkin-Hartley guinea pigs (b.w. 300-350 g), fasted overnight, were used. Animals were stunned, the abdomen was opened and 4 cm long ileum sections were cut. The sections were placed in a Petri dish containing Tyrode's solution at 37° C. and continuously bubbled with carbogen. The ileum fragments were washed with Tyrode's solution and then were transferred to an organ bath. Ileum contraction was measured using an isometric transducer. The initial load was 1 g. After a stabilization period of 20 min in which the organ is immersed in Tyrode's solution at 37° C. continuously bubbled with carbogen, non cumulative stimuli with submaximal doses of histamine (5×10^-7 M) were given. The contraction in absence or presence (5 min. preincubation time) of the test compounds was recorded.

[2] = tested on: hypotension induced by PAF; assay: Inhibition of the hypotensive effect induced by PAF in normotense rats (Test 2); design: species or system Sprage Dawley rats; details: Rattus norvegicus; iv, 3 min before PAF 0.5 mcg/Kg i.v.; 50% inhibition of hypotension; read-out: PAF antagonism in vivo, Test 2 Art. p. ID50
Experimental: Male Sprage Dawley rats (b.w. 180-220 g) anesthetized with sodium pentobarbital (50 mg/Kg, i.p. 1 mL/100 g) are used. In order to measure the average arterial pressure, a polyethylene catheter is introduced into the carotid artery. The arterial pressure is recorded with the help of a transducer connected with a R611 Beckman polygraph. The test compounds are administered through the femoral vein 3 min. before the injection of PAF (0.5 mcg/Kg, i.v.).

[3] = tested on: platelet aggregation induced by PAF; assay: Inhibition of platelet aggregation induced by PAF (Test 1); type: cell-based, New Zealand albino rabbits; details: Oryctolagus cuniculus; rabbit platelet rich plasma; PAF (C18) 16 nM final; read-out: PAF antagonism in vitro, Test 1 Plat. aggreg. IC50
Experimental: The platelet rich plasma (PRP) is prepared by blood centrifugation at 250×g for 10 min. at 4° C. and it is diluted with platelet poor plasma (PPP) obtained by additional centrifugation at 3000×g for 10 min. The amount of platelets is adjusted to […].

Row | SMILES | ED50 (mortality induced by PAF) | IC50 [1] | ED50 [2] | IC50 [3] | activity in the PAF-induced mortality test, in words (mortality induced by PAF; oral administration) | activity in the PAF-induced mortality test relative to all the other tested compounds (mortality induced by PAF; oral, superior to all the other tested compounds) | antihistamine activity compared with compounds 11 and 12-14, in words [1] | antihistamine potency in words [1] | antihistaminic potency relative to the 2-methyl derivative 3 ([1]; more potent than compound 3) | antihistaminic potency relative to compound 11 ([1]; more potent than compound 11) | antihistaminic potency relative to the 6-methyl and 4-methyl derivatives 2 and 5 ([1]; more potent than compounds 2 and 5)
1 | Clc1ccc2c(c1)CCc1cccnc1C2=C1CCN(Cc2cncc(Br)c2)CC1 [Compound 8, 8-chloro-11-(1-[(3-bromo-5-pyridyl)methyl]-4-piperidyliden)-6,11-dihydro-5H -benzo[5,6]cyclohepta[1,2-b]pyridine, trihydrochloride] | < 30 mg/kg | 280 nM | > 5 mg/kg | 0.72 µM |  |  |  |  |  |  | 
2 | O=C(c1cc[n+]([O-])cc1)N1CCC(=C2c3ccc(Cl)cc3CCc3cccnc32)CC1 [Compound 13, reference compound] | > 30 mg/kg | 210 nM | 1.9 mg/kg | 0.22 µM |  |  |  |  |  |  | 
3 | Cc1cncc(CN2CCC(=C3c4ccc(Cl)cc4CCc4cccnc43)CC2)c1 [Compound 4, 8-chloro-11-[1-[(5-methyl-3-pyridyl)methyl]-4-piperidyliden]-6,11-dihydro-5H-benzo[5,6]cyclohepta[1,2-b]pyridine] | 1.9 mg/kg | 4.3 nM | 0.44 mg/kg | 3.2 µM | strong activity | ≥ 10 fold | stronger activity than the 4-pyridine 11 and the compounds 12-14 | potent antihistamines | ~100 fold | 20 fold | 10 fold
4 | Cc1ccncc1CN1CCC(=C2c3ccc(Cl)cc3CCc3cccnc32)CC1 [Compound 5, 8-chloro-11-(1-[(4-methyl-3-pyridyl)methyl]-4-piperidyliden)-6,11-dihydro-5H -benzo[5.6]cyclohepta[1,2]pyridine] | 10 to 30 mg/kg | 35 nM | > 5 mg/kg | 15 µM |  |  | stronger activity than the 4-pyridine 11 and the compounds 12-14 | potent antihistamines |  |  | 
5 | Clc1ccc2c(c1)CCc1cccnc1C2=C1CCN(Cc2ccncc2)CC1 [Compound 11, reference compound] | 30 mg/kg | 94 nM | > 5 mg/kg | 1.8 µM |  |  |  |  |  |  | 
6 | Cc1ccc(CN2CCC(=C3c4ccc(Cl)cc4CCc4cccnc43)CC2)cn1 [Compound 2, 8-chloro-11-(1-[(6-methyl-3-pyridyl)metyl]-4-piperidyliden)-6,11-dihydro-5H-benzo [5,6]cyclohepta[1,2-]pyridine] | 30 mg/kg | 37 nM | > 5 mg/kg | 9 µM |  |  | stronger activity than the 4-pyridine 11 and the compounds 12-14 | potent antihistamines |  |  | 
7 | Cc1ncccc1CN1CCC(=C2c3ccc(Cl)cc3CCc3cccnc32)CC1 [Compound 3, 8-chloro-11-(1-[(2-methyl-3-pyridyl)methyl]-4-piperidyliden)-6,11-dihydro-5H-benzo [5,6]cyclohepta[1,2-b]pyridine] | > 30 mg/kg | 270 nM | > 5 mg/kg | 13 µM |  |  |  |  |  |  | 
8 | Clc1ccc2c(c1)CCc1cccnc1C2=C1CCN(Cc2cccnc2Cl)CC1 [Compound 6, 8-chloro-11-(1-[(2-chloro-3-pyridyl)methyl]-4-piperidyliden)-6,11-dihydro-5H -benzo[5,6]cyclohepta[1,2-b]pyridine] | > 30 mg/kg | 350 nM | > 5 mg/kg | > 100 µM |  |  |  |  |  |  | 
9 | Clc1ccc2c(c1)CCc1cccnc1C2=C1CCN(Cc2cccnc2)CC1 [Compound 1, 8-chloro-11-(1-(3-pyridylmethyl)-4-piperidyliden)-6,11-dihydro-5H-benzo[5,6]cyclohepta[1,2-b]pyridine] | 30 mg/kg | 160 nM | > 5 mg/kg | 4 µM |  |  |  |  |  |  | 
10 | CC(=O)N1CCC(=C2c3ccc(Cl)cc3CCc3cccnc32)CC1 [Compound 12, reference compound] | 31 mg/kg | 100 nM | 2 mg/kg | 0.84 µM |  |  |  |  |  |  | 
11 | COc1ccc(CN2CCC(=C3c4ccc(Cl)cc4CCc4cccnc43)CC2)cn1 [Compound 9, 8-chloro-11-(1-[(6-methoxy-3-pyridyl)methyl]-4-piperidyliden)-6,11-dihydro-5H -benzo[5,6]cyclohepta[1,2-b]pyridine] |  | 380 nM |  | 37 µM |  |  |  |  |  |  | 
12 | Clc1ccc2c(c1)CCc1cccnc1C2=C1CCN(Cc2ccc(Cl)nc2)CC1 [Compound 7, 8-chloro-11-(1-[(6-chloro-3-pyridyl)methyl]-4-piperidyliden)-6,11-dihydro-5H -benzo[5,6]cyclohepta[1,2-b]pyridine] | 20 to 30 mg/kg |  | > 5 mg/kg | > 100 µM |  |  |  |  |  |  | 
13 | CCOC(=O)N1CCC(=C2c3ccc(Cl)cc3CCc3cccnc32)CC1 [Compound 14, reference compound] | > 30 mg/kg |  | > 5 mg/kg |  |  |  |  |  |  |  | 

— US5476856A, “Treatment of PAF and histamine-mediated diseases with 8-chloro-11-[1-[(5-methyl-3-pyridyl)methyl]-4-piperidyliden]-6,11-dihydr o-5H-benzo[5,6]cyclohepta[1,2-b]pyridine” (J. Uriach & Cia. S.A., priority 1992, dated 1995)
